Experimental data reported in US12611406B2, “Oxopiperazine derivatives for the treatment of cancer” (Inthera Bioscience AG, priority 2020, dated 2026).
Like-named read-outs stand apart in the source and are kept apart here.

Experiments:
[1] = system: 22Rv1; test: S-phase arrest (cell cycle FACS); format: cell-based; set-up: key: “+” (present); “−” (absent); conditions: Rb wt, p53 wt
Description: (§1) Cell cycle phase distribution in control (C) cells or cells treated at 20 or 200 nM Compound 1 for 24 hours (24 h) determined by fluorescence activated cell sorting (FACS) analysis, and detection of histone H2A variant H2A.X phosphorylation (γH2A.X, also referred to herein as gamma H2A.X or γH2A.X) by Western blot as DNA damage biomarker.
(§2) In table 1, “wt”=wild-type; “x”=cells harboring Rb and p53 deficiencies; “+” (present) or “−” (absent) indicate the arrest (i.e. accumulation) of cells in S-phase triggered by Compound 1, which coincided with accumulation of the DNA damage marker phosphorylated gamma H2AX (γH2AX; see FIG. 3A). These events are followed by activation of caspases 3 and 7 as indicators of cell apoptosis as indicated by “+” (present) or “−” (absent). In cancer cells with intact Rb and/or p53 functions (wt=wild-type), Compound 1 induced growth arrest but not a substantial increase of cells in S-phase (=S-phase arrest). Upon release of treatment, such cells are able to proliferate again.

[2] = system: SCLC-21H; test: S-phase arrest (cell cycle FACS); format: cell-based; set-up: key: “+” (present); “−” (absent); conditions: Rb x, p53 x
Description: as §1, §2

[3] = Metabolic stability in intestinal microsomes; format: in vitro ADME; conditions: monkey compared to human
Description: In vitro testing also supports the use of mouse, Beagle dog, and cynomolgus monkey models to assay dosing and effectiveness of Compound 1. […] The metabolic profiles of hepatocytes from mouse, dog, and monkey that were cultured with Compound 1 were assessed. Similarly, the metabolic stability of Compound 1 was assayed in vitro using intestinal microsomes from mouse, rat, dog, monkey, and humans.

[4] = system: PR6512; test: PR6512 mouse PDX prostate cancer model, daily oral; format: in vivo
Description: FIG. 7B the efficacy of Compound 1 in the in vivo mouse PDX prostate cancer model PR6512. […] QD: once daily treatment. po: per os.
Again, an effect of the body weight was detected in all treatment groups (including the vehicle group).

[5] = system: 22Rv1; test: 22Rv1 prostate cancer CDX mouse model; format: in vivo
Description: Left panel: Tumor growth curves. Right panel: Body weight development. The respective dosing regimen is indicated as bars below the x-axis. QD: once daily treatment; po: per os.
Left panel: Tumor growth curves. Right panel: Body weight development. The dosing regimen is indicated as dots below the curves. BID: twice daily treatment. QW: once weekly treatment. p.o.: per oral.
NCI-H660 cells represent a rather far advanced PC type in which not only the tumor suppressor functions of Rb1 and p53 have been lost (see Table 1). Furthermore, the cells already have developed a small cell phenotype characteristic of advanced treatment-resistant PC. In contrast, 22Rv1 tumor cells that are wild-type for Rb1 and p53 pathways were less sensitive to Compound 1 treatment when a once weekly dosing scheme was used.
Values larger than 100% indicate tumor regression.

[6] = 28-day once weekly oral repeated-dose DRF study in cynomolgus monkeys (mesylate salt); format: in vivo; conditions: for Cmax / Tmax / half-life / AUC(0-t): cynomolgus monkey, po; for AUC(0-t): read-out: AUC0-Tlast
Description: The objective of the study was to determine the TK profile of Compound 1 following 4 weekly oral administrations to cynomolgus monkeys and to assess reversibility of any changes following a 13-day recovery period.
Male and female cynomolgus monkeys (n=1/sex/group) were orally administered Compound 1 (mesylate salt) at dose levels of 30, 45, 60, or 90 mg/kg/administration for 4 consecutive doses on study days 1, 8, 15, and 22. The vehicle was 0.5% (w/v) methyl cellulose 400 in sterile water. For TK analysis blood samples were collected from each monkey on Days 1, 8, 15 and 22 at pre-dose, 15 min, 30 min, as well as 1, 2, 4, 6, 8, 12, and 24 hours post-dose. Non-compartmental analysis of Compound 1 blood concentrations data sets was performed using the Phoenix® WinNonlin® software (version 6.4).

[7] = Plasma protein binding, equilibrium dialysis; format: in vitro ADME, cynomolgus monkey; conditions: monkey plasma, 37° C, buffer pH 7.4; read-out: Fraction unbound (Fu), Mean
Description: Protein binding of Compound 1 to the plasma from several species, i.e., human, cynomolgus monkey, dog, rat, and mouse was investigated in vitro by incubation in plasma and determination of unbound fraction of Compound 1 using equilibrium dialysis. Compound 1 was incubated in 100% species-specific plasma and added to one side of the membrane in an equilibrium dialysis system while buffer (pH 7.4) is added to the other side. The system was allowed to reach equilibrium at 37° C. Compound concentration on both sides of the membrane is measured by liquid chromatography—tandem mass spectroscopy (LC-MS/MS).

[8] = female, blood, 45 mg/kg, F, Day 1
[9] = female, blood, 45 mg/kg, F, Day 22
[10] = female, blood, 60 mg/kg, F, Day 1
[11] = female, blood, 60 mg/kg, F, Day 22
[12] = female, blood, 90 mg/kg, F, Day 1
[13] = female, whole blood, 30 mg/kg, F, Day 1
[14] = female, whole blood, 30 mg/kg, F, Day 22
[15] = male, blood, 60 mg/kg, M, Day 1
[16] = male, blood, 60 mg/kg, M, Day 22
[17] = male, blood, 90 mg/kg, M, Day 1
[18] = male, whole blood, 30 mg/kg, M, Day 1
[19] = male, whole blood, 30 mg/kg, M, Day 22
[20] = male, whole blood, 45 mg/kg, M, Day 1
[21] = male, whole blood, 45 mg/kg, M, Day 22

CC(C)C[C@@H]1NCCN([C@@H](CC(C)C)C(=O)N2CCC3(C[C@@H]2C)OCC(CN2CCCC2)CO3)C1=O (stereo partly drawn) [Compound 1, (S)-3-isobutyl-1-((S)-4-methyl-1-((S)-8-methyl-3-(pyrrolidin-1-ylmethyl)-1,5-dioxa-9-azaspiro[5.5]undecan-9-yl)-1-oxopentan-2-yl)piperazin-2-one]
S-Phase Arrest [1]: −
S-Phase Arrest [2]: +
stability in intestinal microsomes [3]: lower stability
tumor growth ([4]; 3 mg/kg QD): complete block of tumor growth
tumor growth ([4]; 1, 1.5, 2, and 3 mg/kg daily oral): dose dependent growth inhibition of tumors
PSA in blood ([4]; PR6512): effective PSA reduction
tumor response ([5]; 3 mg/kg oral): cytostatic growth inhibition
anti-tumor activity, every other week vs daily ([5]; 3 mg/kg oral, 7d on/7d off compared to same dose daily): almost the same anti-tumor growth activity
Tumor growth inhibition ([5]; 30 mg/kg BID once weekly (60 mg/kg weekly)): approx. 50%
Tumor growth inhibition ([5]; once weekly 60 mg/kg/day as 30 mg/kg BID, 5 weeks, p 0.001): 47% (0.001)/**5 weeks
Cmax [6, 8]: 1460 ng/mL
Tmax [6, 8]: 1.5 h
half-life [6, 8]: 6.3 h
AUC(0-t) [6, 8]: 4130 ng·h/mL
Cmax [6, 9]: 1650 ng/mL
Tmax [6, 9]: 1.5 h
half-life [6, 9]: 5.8 h
AUC(0-t) [6, 9]: 4810 ng·h/mL
Cmax [6, 10]: 1830 ng/mL
Tmax [6, 10]: 1 h
half-life [6, 10]: 3.8 h
AUC(0-t) [6, 10]: 7440 ng·h/mL
Cmax [6, 11]: 4480 ng/mL
Tmax [6, 11]: 2 h
half-life [6, 11]: 4.4 h
AUC(0-t) [6, 11]: 17400 ng·h/mL
Cmax [6, 12]: 5030 ng/mL
Tmax [6, 12]: 1.5 h
half-life [6, 12]: 4.3 h
Cmax [6, 13]: 296 ng/mL
Tmax [6, 13]: 0.63 h
half-life [6, 13]: 6.4 h
AUC(0-t) [6, 13]: 894 ng·h/mL
Cmax [6, 14]: 223 ng/mL
Tmax [6, 14]: 1.25 h
half-life [6, 14]: 5.5 h
AUC(0-t) [6, 14]: 874 ng·h/mL
AUC(0-t) ([6]; female, whole blood, 90 mg/kg, F, Day 1): 18700 ng·h/mL
Cmax [6, 15]: 449 ng/mL
Tmax [6, 15]: 0.5 h
half-life [6, 15]: 7.5 h
AUC(0-t) [6, 15]: 1170 ng·h/mL
Cmax [6, 16]: 2430 ng/mL
Tmax [6, 16]: 1 h
half-life [6, 16]: 5.7 h
AUC(0-t) [6, 16]: 6710 ng·h/mL
Cmax [6, 17]: 7300 ng/mL
Tmax [6, 17]: 0.63 h
half-life [6, 17]: 4.2 h
AUC(0-t) [6, 17]: 22800 ng·h/mL
Cmax [6, 18]: 229 ng/mL
Tmax [6, 18]: 0.63 h
half-life [6, 18]: 4.9 h
AUC(0-t) [6, 18]: 721 ng·h/mL
Cmax [6, 19]: 171 ng/mL
Tmax [6, 19]: 2 h
half-life [6, 19]: 2.6 h
AUC(0-t) [6, 19]: 576 ng·h/mL
Cmax [6, 20]: 1040 ng/mL
Tmax [6, 20]: 1.5 h
half-life [6, 20]: 7.6 h
AUC(0-t) [6, 20]: 2950 ng·h/mL
Cmax [6, 21]: 1350 ng/mL
Tmax [6, 21]: 1.25 h
half-life [6, 21]: 5.2 h
AUC(0-t) [6, 21]: 3910 ng·h/mL
accumulation ([6]; once weekly for 4 weeks at doses up to 60 mg/kg): did not accumulate
tolerability ([6]; single oral administration of 90 mg/kg/adm): side effects in one animal
tolerability ([6]; weekly oral for 4 consecutive weeks at 30, 45, and 60 mg/kg/administration): well-tolerated
fraction unbound [7]: 0.602
